Reference: PubChem BioAssay (NCI)
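48-hour exposure; five concentrations; linearly interpolated endpoints. GI50 = concentration required for 50% inhibition of growth. TGI marks complete inhibition of growth.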

Tests used:
Test in all cases: NCI tumour cell line growth inhibition, 48 h
786-0 renal = tested on: 786-0 renal
A498 renal = tested on: A498 renal
A549 NSCLC = tested on: A549 NSCLC
ACHN renal = tested on: ACHN renal
BT-549 breast = tested on: BT-549 breast
CAKI-1 renal = tested on: CAKI-1 renal
CCRF-CEM leukemia = tested on: CCRF-CEM leukemia
COLO 205 colon = tested on: COLO 205 colon
DU-145 prostate = tested on: DU-145 prostate
EKVX NSCLC = tested on: EKVX NSCLC
HCC-2998 colon = tested on: HCC-2998 colon
HCT-116 colon = tested on: HCT-116 colon
HCT-15 colon = tested on: HCT-15 colon
HL-60(TB) leukemia = tested on: HL-60(TB) leukemia
HOP-62 NSCLC = tested on: HOP-62 NSCLC
HOP-92 NSCLC = tested on: HOP-92 NSCLC
HS 578T breast = tested on: HS 578T breast
HT29 colon = tested on: HT29 colon
IGROV1 ovarian = tested on: IGROV1 ovarian
KM12 colon = tested on: KM12 colon
LOX IMVI melanoma = tested on: LOX IMVI melanoma
M14 melanoma = tested on: M14 melanoma
MALME-3M melanoma = tested on: MALME-3M melanoma
MCF7 breast = tested on: MCF7 breast
MDA-MB-231 breast = tested on: MDA-MB-231 breast
MDA-MB-435 = tested on: MDA-MB-435
MDA-MB-468 breast = tested on: MDA-MB-468 breast
MOLT-4 leukemia = tested on: MOLT-4 leukemia
NCI-H226 lung = tested on: NCI-H226 lung
NCI-H23 lung = tested on: NCI-H23 lung
NCI-H460 lung = tested on: NCI-H460 lung
NCI-H522 lung = tested on: NCI-H522 lung
NCI/ADR-RES ovarian = tested on: NCI/ADR-RES ovarian
OVCAR-3 ovarian = tested on: OVCAR-3 ovarian
OVCAR-5 ovarian = tested on: OVCAR-5 ovarian
OVCAR-8 ovarian = tested on: OVCAR-8 ovarian
PC-3 prostate = tested on: PC-3 prostate
RPMI-8226 leukemia = tested on: RPMI-8226 leukemia
RXF 393 renal = tested on: RXF 393 renal
SF-268 CNS = tested on: SF-268 CNS
SF-295 CNS = tested on: SF-295 CNS
SF-539 CNS = tested on: SF-539 CNS
SK-MEL-2 melanoma = tested on: SK-MEL-2 melanoma
SK-MEL-28 melanoma = tested on: SK-MEL-28 melanoma
SK-MEL-5 melanoma = tested on: SK-MEL-5 melanoma
SK-OV-3 ovarian = tested on: SK-OV-3 ovarian
SN12C renal = tested on: SN12C renal
SNB-19 CNS = tested on: SNB-19 CNS
SNB-75 CNS = tested on: SNB-75 CNS
SR leukemia = tested on: SR leukemia
SW-620 colon = tested on: SW-620 colon
T-47D breast = tested on: T-47D breast
TK-10 renal = tested on: TK-10 renal
U251 CNS = tested on: U251 CNS
UACC-257 melanoma = tested on: UACC-257 melanoma
UACC-62 melanoma = tested on: UACC-62 melanoma
UO-31 renal = tested on: UO-31 renal

SMILES: Cc1ccc(S(=O)(=O)c2nc(-c3ccccc3)oc2S(=O)(=O)CC(=O)N2CCCC2)cc1
- GI50 (786-0 renal): 1.45 µM
- TGI (786-0 renal): 2.93 µM
- GI50 (A498 renal): 11.9 µM
- TGI (A498 renal): 24.3 µM
- GI50 (A549 NSCLC): 13.1 µM
- TGI (A549 NSCLC): 29.1 µM
- GI50 (ACHN renal): 1.36 µM
- TGI (ACHN renal): 2.65 µM
- GI50 (BT-549 breast): 3.89 µM
- TGI (BT-549 breast): 11.8 µM
- GI50 (CAKI-1 renal): 1.21 µM
- TGI (CAKI-1 renal): 2.5 µM
- GI50 (CCRF-CEM leukemia): 0.529 µM
- TGI (CCRF-CEM leukemia): 2.95 µM
- GI50 (COLO 205 colon): 1.89 µM
- TGI (COLO 205 colon): 4.38 µM
- GI50 (DU-145 prostate): 1.63 µM
- TGI (DU-145 prostate): 3.37 µM
- GI50 (EKVX NSCLC): 2.44 µM
- TGI (EKVX NSCLC): 7.76 µM
- GI50 (HCC-2998 colon): 11.2 µM
- TGI (HCC-2998 colon): 24.1 µM
- GI50 (HCT-116 colon): 1.52 µM
- TGI (HCT-116 colon): 3.34 µM
- GI50 (HCT-15 colon): 1.4 µM
- TGI (HCT-15 colon): 2.92 µM
- GI50 (HL-60(TB) leukemia): 0.978 µM
- TGI (HL-60(TB) leukemia): 3.48 µM
- GI50 (HOP-62 NSCLC): 14.4 µM
- TGI (HOP-62 NSCLC): 31 µM
- GI50 (HOP-92 NSCLC): 2.71 µM
- TGI (HOP-92 NSCLC): 8.32 µM
- GI50 (HS 578T breast): 3.68 µM
- TGI (HS 578T breast): 28.2 µM
- GI50 (HT29 colon): 1.54 µM
- TGI (HT29 colon): 4.05 µM
- GI50 (IGROV1 ovarian): 6.54 µM
- TGI (IGROV1 ovarian): 20.8 µM
- GI50 (KM12 colon): 14.9 µM
- TGI (KM12 colon): 32 µM
- GI50 (LOX IMVI melanoma): 1.45 µM
- TGI (LOX IMVI melanoma): 2.82 µM
- GI50 (M14 melanoma): 1.77 µM
- TGI (M14 melanoma): 4.15 µM
- GI50 (MALME-3M melanoma): 1.55 µM
- TGI (MALME-3M melanoma): 2.95 µM
- GI50 (MCF7 breast): 1.17 µM
- TGI (MCF7 breast): 2.9 µM
- GI50 (MDA-MB-231 breast): 1.63 µM
- TGI (MDA-MB-231 breast): 3.11 µM
- GI50 (MDA-MB-435): 3.08 µM
- TGI (MDA-MB-435): 13.8 µM
- GI50 (MDA-MB-468 breast): 0.587 µM
- TGI (MDA-MB-468 breast): 1.97 µM
- GI50 (MOLT-4 leukemia): 1.73 µM
- TGI (MOLT-4 leukemia): 5.22 µM
- GI50 (NCI-H226 lung): 13.3 µM
- TGI (NCI-H226 lung): 34.7 µM
- GI50 (NCI-H23 lung): 8.06 µM
- TGI (NCI-H23 lung): 23.6 µM
- GI50 (NCI-H460 lung): 7 µM
- TGI (NCI-H460 lung): 22.5 µM
- GI50 (NCI-H522 lung): 1.06 µM
- TGI (NCI-H522 lung): 2.49 µM
- GI50 (NCI/ADR-RES ovarian): 11.4 µM
- TGI (NCI/ADR-RES ovarian): 65 µM
- GI50 (OVCAR-3 ovarian): 1.27 µM
- TGI (OVCAR-3 ovarian): 2.66 µM
- GI50 (OVCAR-5 ovarian): 11 µM
- TGI (OVCAR-5 ovarian): 23.4 µM
- GI50 (OVCAR-8 ovarian): 7.2 µM
- TGI (OVCAR-8 ovarian): 25.1 µM
- GI50 (PC-3 prostate): 11.8 µM
- TGI (PC-3 prostate): 30.7 µM
- GI50 (RPMI-8226 leukemia): 2.68 µM
- TGI (RPMI-8226 leukemia): > 100 µM
- GI50 (RXF 393 renal): 1.08 µM
- TGI (RXF 393 renal): 2.41 µM
- GI50 (SF-268 CNS): 12.2 µM
- TGI (SF-268 CNS): 33.2 µM
- GI50 (SF-295 CNS): 12.2 µM
- TGI (SF-295 CNS): 25 µM
- GI50 (SF-539 CNS): 1.54 µM
- TGI (SF-539 CNS): 2.91 µM
- GI50 (SK-MEL-2 melanoma): 13.1 µM
- TGI (SK-MEL-2 melanoma): 26.2 µM
- GI50 (SK-MEL-28 melanoma): 1.82 µM
- TGI (SK-MEL-28 melanoma): 3.54 µM
- GI50 (SK-MEL-5 melanoma): 12.5 µM
- TGI (SK-MEL-5 melanoma): 25.2 µM
- GI50 (SK-OV-3 ovarian): 15.6 µM
- TGI (SK-OV-3 ovarian): 30.5 µM
- GI50 (SN12C renal): 6.68 µM
- TGI (SN12C renal): 19.6 µM
- GI50 (SNB-19 CNS): 14.5 µM
- TGI (SNB-19 CNS): 27.6 µM
- GI50 (SNB-75 CNS): 3.89 µM
- TGI (SNB-75 CNS): 17.4 µM
- GI50 (SR leukemia): 1.49 µM
- TGI (SR leukemia): 6.6 µM
- GI50 (SW-620 colon): 0.801 µM
- TGI (SW-620 colon): 2.24 µM
- GI50 (T-47D breast): 1.78 µM
- TGI (T-47D breast): 4.94 µM
- GI50 (TK-10 renal): 1.7 µM
- TGI (TK-10 renal): 3.15 µM
- GI50 (U251 CNS): 15.5 µM
- TGI (U251 CNS): 29.7 µM
- GI50 (UACC-257 melanoma): 1.73 µM
- TGI (UACC-257 melanoma): 3.73 µM
- GI50 (UACC-62 melanoma): 4.53 µM
- TGI (UACC-62 melanoma): 16.5 µM
- GI50 (UO-31 renal): 1.36 µM
- TGI (UO-31 renal): 2.66 µM
